The values that follow come from patent US20100222289A1, “METHODS FOR DIAGNOSIS AND TREATMENT OF CHRONIC FATIGUE SYNDROME” (CFS Research LLC, priority 2007, published 2010).

SMILES strings stand for the structures.

The subject of series [1] is HCMV. The conditions noted are these: versus HCMV; read-out: 50% inhibitory concentration; cited from earlier work.
The conditions of series [2]: high dose repetitive human studies; cited from earlier work.
Series [3] has as its system HHV6. Particulars: cited from earlier work.
In the next series the test system is EBV CFS subset. Nature of the series: Example 3: valacyclovir in EBV subset CFS, placebo-controlled trial and 36 month follow-up. It counts as in vivo, human. On the procedure:
We used subset classification of Epstein-Barr virus (EBV) in chronic fatigue (CFS). We (1) performed (Group 1) a blinded-random placebo-controlled trial of valacyclovir in EBV CFS subset, and (2) followed (Group 2) this EBV subset for thirty-six months. Patients were given valacyclovir 14.3 mg per kg every 6 hours. The validated Energy Index point score (EI) assessing physical functional capacity, Holter monitor, multigated (radionuclide) MUGA rest/stress ventriculographic examination, EBV serum IgM viral capsid antibodies (VCA), and EBV Early Antigen diffuse, (EA) were evaluated.

Series [4] relates to HCMV. The conditions noted are these: cited from earlier work.
For series [5] the following is noted: cited from earlier work.
In series [6] the test system is Group A herpesvirus CFS (EBV, HCMV, HHV6). Nature of the series: Example 4: Energy Index Point Score (EIPS) in Group A herpesvirus CFS patients on antiviral nucleosides. In kind it is in vivo, human. From the text:
Background and Patient Population The international criteria for diagnosis of CFS was used. With strict confidentiality clinical files of CFS patients were identified by number only. A blinded code was maintained. Data were entered to the Axel computer system and analyzed anonymously. Patients with active EBV infection were identified by the presence of elevated serum ELISA antibodies to Epstein-Barr virus (EBV) IgM viral capsid antigen p18 peptide (Diasorin Inc., Stillwater, Minn.) and/or EBV, Early antigen (diffuse) 47 KD recombinant peptide (Diasorin, Stillwater, Minn.). Patients with active HCMV infection were identified by the presence of HCMV strain AD69 human fibroblast lysate, IgM and IgG ELISA and Copalis light-scatter, HCMV IgM p52 recombinant protein, UL44 and HCMV CM2, UL44 and part UL57 recombinant protein. Elevated IgM and IgG Human Herpesvirus 6 serum antibody titers ≧160 (LabCorp, Dublin, Ohio) were recorded. CFS patients had 24-Hr ECG Holter monitor recordings. When abnormal resting standard ECG and abnormal recurrent oscillating T-waves (flat, inverted) were present at baseline, radionuclide ventriculography by bicycle protocol stress studies were performed. The CFS patients reported here are termed Group A. They had negative IgM, IgG serum antibody titers to Borrelia burgdorferi, Western blot and ELISA; anti-streptolysin 0 titers <200 units; and negative serum IgM and IgG antibody titers to both Ehrlichia chaffeensis and Babesia microti (LabCorp).
Measurement of Degree of Fatigue (Physical Capacity) The Energy Index Point Score (EIPS) is a reliable validated metric assessing the degree of illness of CFS patients. With an EIPS scoring scale for reference on the wall in each examining room, the EIPS was determined by consensus of physician and patient. An EIPS of “0” is a bedridden patient. Patients were seen every 4-6 weeks and EIPS recorded. If an intercurrent illness was present EIPS determinations were delayed for 2 weeks. An EIPS of between 0 and 5 is associated with the presence of CFS. At an EIPS of between 6 and 10, the patient no longer meets criteria for diagnosis of CFS. A change in EIPS of 0.25 is small, a 0.5 change in EIPS is a medium change, and an EIPS change of ≧0.8 is a large effect size (p<0.05).
Valacyclovir and Famciclovir Administration to CFS patients with EBV infection Valacyclovir and famciclovir are pro-drugs well absorbed orally and, after reaching the circulation as acyclovir or penciclovir, respectively, inhibit EBV thymidine kinase efficiently. […]. Here, valacyclovir was the agent of first choice, but when diarrheas to valacyclovir developed, famciclovir was substituted. […]. If the patient weighed over 79.5 Kg, 1500 mg valacyclovir was given at each dose. Valacyclovir is excreted by the kidney by both glomerular filtration and tubular secretion. Valacyclovir renal calculi may result, and patients were advised to drink at least 1500 ml water daily. […]. Valacyclovir, once absorbed orally, is acyclovir in serum.
CFS patients were given valganciclovir. Cautiously beginning, 450 mg daily was administered every morning after a meal for three days, and then increasing dosage to two doses of 450 mg, every morning for three days. They were then given two doses of 450 mg valganciclovir every morning followed by one 12 hours later as a continuing dosage. […] If the patient weighed over 90.0 Kg, 900 mg valganciclovir every 12 hours was given. Dosage was evaluated every 2-6 weeks for ongoing tolerance with normal values of hemograms, platelets and amino transferases and creatinines.

On the set-up of series [7]: species or system human. The conditions noted are these: in vivo. On the procedure: Toxicity of Antiviral Nucleosides Patients were seen every 4 to 6 weeks, EIPS was recorded and complete blood count, aminotransferases, creatinine and urinalyses were done. Also recorded were abnormalities in white blood cells and platelet counts, aminotransferases, weight gain or loss, whether famciclovir was substituted for valacyclovir, dosage change for valganciclovir, valacyclovir, or famciclovir, and whether any of the following occurred: participation in blinded-placebo-controlled study, hospitalization, surgery, recovery, a cessation of medicines by patient choice, cessation of medicines by physician choice, relapse with worsening EIPS and returned for care.

In series [8] the test system is EBV. The conditions noted are these: cited from earlier work.
Another series concerns HCMV-EBV subset CFS. Nature of the series: Example 1: subset directed antiviral therapy of HCMV-EBV CFS patients. In kind it is in vivo, human. Particulars: for clinical outcome: 10 CFS patients, treated according to subset for mean 2.6±0.4 years; for side effects: mean 2.6±0.4 years treatment. On the procedure: Ten patients with chronic fatigue syndrome (CFS) of 1.3-2.6 years duration had elevated serum antibody titers to cytomegalovirus (HCMV), and 9 of these patients also had elevated serum antibody titers to Epstein-Barr virus (EBV). They were classified: HCMV-EBV subset (nine patients) and HCMV subset (one patient) CFS. We determined whether subset classification is required for successful antiviral therapy of CFS.
CFS patients with elevated serum antibody titers to HCMV and EBV were treated with valganciclovir (HCMV) and valacyclovir (EBV) according to subset classification for a mean of 2.6±0.4 years. […] Five patients continue no antiviral drug, and five patients require continuing antiviral suppressive therapy. […] Subset directed antiviral therapy leads to sustained recovery in CFS patients.

Series [9] has as its system HHV6. Particulars: cited from earlier work. This is another data set of the same source.
In series [10] the test system is HCMV. Particulars: cited from earlier work. This is another data set of the same source.
The subject of series [11] is EBV. Put plainly: simultaneous tests, activity versus EBV compared to HCMV. It counts as cell-based, Epstein-Barr virus. From the text:
Therefore, valganciclovir was employed in CFS associated with HCMV or HHV6. Valganciclovir is efficiently absorbed as ganciclovir. It […] to human bone marrow progenitor cells and lymphocyte blastogenesis at this dosage. […] Food increases the bioavailability of both valacyclovir and valganciclovir.

Series [12] deals with human bone marrow progenitor cells and lymphocyte blastogenesis. The conditions noted are these: at this dosage; cited from earlier work.
The mark [13] stands for this setting: Group 2, thirty-six month follow-up.
Setting [14] is: 1 gm doses every 6 hours, 70 kg patients.
Where [15] appears, read: EBV single-virus subset (31 pts).

As for `Nc1nc(O)c2ncn(COC(CO)CO)c2n1` [ganciclovir], the IC50 in the series on HCMV [1] is 530 ± 40 nM.

Regarding `CC(C)Nc1nc2cc(Cl)c(Cl)cc2n1[C@H]1O[C@@H](CO)[C@H](O)[C@@H]1O` [maribavir, 1H-β-L-ribofuranoside-2-isopropylamino-5,6-dichlorobenzimidazole], the side effects entry in series [2] was “changes in taste and headache”. Also, in the series with HCMV [1], the IC50 was 120 ± 10 nM.

In the case of `CC(C)[C@H](N)C(=O)OCCOCn1cnc2c(=O)[nH]c(N)nc21` [valacyclovir], in the series with HHV6 [3], the “effective therapeutic agent for HHV6” value was “not an effective therapeutic antiviral agent”. Moreover, the “increase in energy expenditure corresponding to EI change” value in the series with EBV CFS subset (Group 1, after six months) is 122 kcal/day. Further, in the series on EBV CFS subset (Group 1, after six months, 14.3 mg per kg every 6 hours), the “increase in mean least square EI Point Score” value is listed as “+1.12 units”. In addition, in the series with EBV CFS subset (setting [13]), the “EI Point Scores” value is reported as “increased progressively”, the “abnormal cardiac wall motion” value is given as “improved”, the “serum antibody titers to EBV VCA IgM” value is reported as “decreased” and the sinus tachycardias entry is listed as “decreased”. The “effective therapeutic agent for HCMV” value in the series on HCMV [4] is on record as “not an effective therapeutic antiviral agent”. For the same molecule, in series [5] (setting [14]), the peak acyclovir levels is 7.9 to 21 µg/mL and the “time of peak acyclovir levels” value was 90 to 120 min. Also, the “EIPS Change” value in series [6] (setting [15]) is given as “+2”. Besides, in [7], the toxicity entry is “no toxicity”. Further, the “minimum inhibitor concentration (MIC)” value in the series with EBV [8] is 1.5 to 3.0 µg/mL. In the series with HCMV-EBV subset CFS, the clinical outcome was “returned to health and remain well”; the side effects result is reported as “No significant side effects”.

As for `CC(C)[C@H](N)C(=O)OCC(CO)OCn1cnc2c(=O)nc(N)[nH]c21` (some centres unmarked) [valganciclovir], the “effective therapeutic agent for HHV6” value in the series on HHV6 [3] is recorded as “not effective therapeutic agents”. The MIC in the series on HHV6 [9] and with HCMV [10] was 0.15 to 0.3 µg/mL in each case. The “effective therapeutic agent for HCMV” value with HCMV [4] is on record as “not effective therapeutic agents”. The “activity versus EBV as compared to HCMV” value with EBV [11] is listed as “one-tenth as active”. Also, in [5] (after 0.5-1.0 gm doses), the “average peak concentrations (Cmax)” value was 6.1 µg/mL. Also, the “EIPS Change” value is “+1.8” in series [6] (EBV/HCMV subset (38 pts)); “+2.0” in [6] (EBV/HHV6 subset (14 pts)); “+1.5” in [6] (HCMV single-virus subset (15 pts)); “+1.7” in series [6] (HCMV/HHV6 subset (7 pts)); “+2.7” in series [6] (HHV6 single-virus subset (2 pts)). Moreover, the “effect on human bone marrow progenitor cells and lymphocyte blastogenesis” value in series [12] is on record as “inhibitory”. Also, the aminotransferases result in [7] was “increases in aminotransferases were observed”. Further, the “changes in hemoglobin or platelet levels” value in series [7] is given as “no changes”. The clinical outcome in the series with HCMV-EBV subset CFS is “returned to health and remain well”. Moreover, the side effects result in the series with HCMV-EBV subset CFS is reported as “No significant side effects”.

With `CC(=O)OCC(CCn1cnc2cnc(N)nc21)COC(C)=O` [famciclovir], the “effective therapeutic agent for HHV6” value in the series on HHV6 [3] was “not effective therapeutic agents”. Further, in the series on HCMV [4], the “effective therapeutic agent for HCMV” value is given as “not effective therapeutic agents”. In [6] (setting [15]), the “EIPS Change” value is on record as “+2”. Also, in series [7], the toxicity result is recorded as “no toxicity”.
